In data set [1] the test system is C. albicans SC5314. The data set can be described thus: Germ tube formation (GTF %) in vitro screening, GlcNAc-triggered differentiation assay. The data set is classed as cell-based, Candida albicans. The method, then:
Based on the results in FIG. 3, single cell suspensions of SC5314 was prepared as follows. Stock culture of C. albicans SC5314 was streaked onto YPD agar (YPDA) and incubated at 30° C. overnight. Single colonies were subcultured in YPD broth (YPDB) and incubated 30° C., 200 rpm overnight. Overnight culture in YPDB was subcultured in YPD broth again and incubated 30° C., 200 rpm 48 h. Cells were collected by centrifugation (4000 g 10 min) at 4° C., washed three times with sterile water, and then resuspended in sterile water a final concentration of 10^9 colony-forming unit/ml (cfu/ml). The suspension were stored at 4° C. at least 1 d, then subcultured into YPDB to a final concentration of 10^6 cfu/ml. After 48 h incubation, cell suspension was examined under the microscope for single cell percentage. When the single cell percentage exceeded 80%, cells were collected and washed three times with water, then resuspended in water to a final concentration of 10^9 cfu/ml, and stored at 4° C. for no more than a month.
Two approaches were taken to determine the percentage of cells with germ tubes formed (GTF %). One way was to count the total cells at the start of incubation, and count the ungerminated cells after incubation, then calculate the GTF % as (1—ungerminated cells/total cells at 0 h)*100. Another way was to store the samples at 15° C. for 20 h after incubation, then count the germinated cells and total cells after disaggregation, then calculated the GTF % as (germinated cells/total cells after storage)*100. […] Therefore, for practical purposes, the GTF % was determined by the first method, that is, GTF %=(1—ungerminated cells/total cells at 0 h)*100, for the in vitro screening discussed herein.
A screening medium, containing 11 mM imidazole buffer, 3 mM MgSO4, and 2.6 mM N-acetyl-D-glucosamine (GlcNAc) has been used to study the effect of farnesol analogs on the germ tube formation of C. albicans. Here, the germ tube formation of C. albicans in modified screening media was assessed with various concentrations of imidazole buffer (10 mM, 30 mM and 50 mM) and MgSO4 (0.5 mM, 1.5 mM and 3 mM). […] It took 2 h to 3 h for the GTF % to reach above 80%. For practical purposes, the screening medium, containing 11 mM imidazole buffer, 0.5 mM MgSO4, and 2.6 mM N-acetyl-D-glucosamine (GlcNAc) was adopted for in vitro screening the quorum sensing inhibitory effect of farnesol compounds.
The in vitro screening assay was based on the N-acetylglucosamine (GlcNAc)-triggered differentiation assay (Hornby et al., “Quorum sensing in the dimorphic fungus Candida albicans is mediated by farnesol;” Applied and Environmental Microbiology 67:2982-2992; 2001), which included 0.56 ml of 0.1 M imidazole buffer (pH 6.5), 0.15 ml of 0.1 M MgSO4, 0.13 ml of 0.1 M GlcNAc, and 4.16 ml of sterilized water. Bioassays of quorum sensing candidates were conducted by the addition of the chemical, as a solution in 100% methanol, to the bioassay media; the final concentration of methanol was no greater than 1%.

Data set [2] concerns C. elegans glp4; sek1 infected with C. albicans SC5314. The data set can be described thus: Death rate of C. elegans glp4; sek1 infected with C. albicans SC5314, 96 well plates. The data set is classed as in vivo, Caenorhabditis elegans. The following applies: initial screening. The method, then:
Caenorhabditis elegans glp4; sek1 was used as the model for […]. Breger et al. (Breger, J.; Fuchs, B. B.; Aperis, G.; Moy, T. I., Ausubel, F. M., Mylonakis, E.; “Antifungal chemical compounds identified using a C. elegans pathogenicity assay.” PLoS Pathogens 3: 168-178; 2007) reported that the glp-4 mutation rendered the strain incapable of producing progeny at 25° C., and the sek-1 mutation enhanced the sensitivity of the strain to various pathogens, thereby decreasing the time for screening assays. It was observed that no progenies was produced by the Caenorhabditis elegans glp4; sek1 strain after 3 d incubation at 25° C.
The synchronization of C. elegans was achieved by collecting the eggs and arresting the larvae at L1 stage. The commonly used bleach treatment was able to release the eggs from the adult worms. However, it was observed that the released eggs were not always able to hatch after treated with sodium hypochlorite (0.2, 0.3, 0.4, 0.5, 0.7 or 1%) for 3-5 min. A modified egg laying method was developed to synchronize worms to L1 stage. In brief, stock cultures of C. elegans glp4; sek1, maintained on Nematode Growth Media plates (NGM plates), were subcultured onto NGM plates with OP 50 and incubated at 15° C. for 6-9 days. Then a chunk (1 cm^2) of agar with gravid adults was subcultured again onto NGM plates with OP50 and incubated at 15° C. After incubation of 3-7 days, the worms were gently washed off with 3 ml of M 9 buffer on the rotating platform (100 rpm). The plate was tilted on its lid to allow the liquid and worms drain to one side of the plate. The liquid and worms were aspirated off. The plate was washed again with M9 buffer three more times to remove OP50 as much as possible. After washing, the plate was incubated at 25° C. overnight to let the eggs hatch overnight. Since there was no OP50, the larvae were arrested at the L1 stage. The live C. elegans glp4; sek1 was quite curvy; whereas the dead C. elegans glp4; sek1 tended to be straight, and in most cases the dead worms with the hyphae of C. albicans pieced through the body. The curvy shape and movement after shaking were used as the criteria for live.
The In vitro screening assay, based on the method of Tampakakis et al (Tampakakis, E.; Okoli, I.; Mylonakis, E.; “A C. elegans-based, whole animal, in vivo screen for the identification of antifungal compounds.” Nature Protocols 3:1925-1931; 2008), is described as follows:
L1 worms, which were prepared by the modified egg-laying method, were collected by centrifugation at 675 g for 30 s at room temperature, and the supernatant was removed. Worms were resuspended in M 9 buffer and inoculated on NGM agar plates with OP50, ˜1000 worms per plate. After 2-3 days incubation at 25° C., the worms were washed off with M 9 buffer for the […] assay.
The control were worms fed on OP50.

For the next data set, the system named is C. elegans glp4; sek1. The data set can be described thus: Toxicity: death rate of C. elegans glp4; sek1 fed on E. coli OP50. How it is done:
The toxicity of the selected compounds/products were tested using the C. elegans glp4; sek1 fed on E. coli OP50 (Table 5).
Stock cultures of C. albicans SC 5314 was subcultured into 3 ml of YPD broth and incubated at 30° C. Then the overnight culture in broth was spread onto YPD agar, and incubated at 30° C. The 24 h old lawn of SC5314 was used to feed worms for 2 h at 25° C. The control were worms fed on OP50.
The worms were washed off the YPD plates and washed twice with M9 buffer. The worms were resuspended in screening media, M9 buffer with 0.3% Tween 80. The worm suspension (50 μl) was dispensed into the wells of 96-well plates, 20-30 worms/well. Aliquots (50 μl) of compounds in screening media were added to wells, 5 wells each compound. The 96 well plates were incubated at 25° C. for up to 5 days. Live and dead worms were counted during incubation, and the death rates of worms were calculated.

Data set [3] deals with C. albicans SC5314. The experiment in a line: Effect of quorum sensing molecules on lag phase/growth of C. albicans in YPD broth. Type of data set: cell-based, Candida albicans. The settings on record: 100 μM, 37° C., 6 h.
The conditions of data set [4]: cited from earlier work.

Regarding `CC(C)=CCC/C(C)=C/CC/C(C)=C/CO` [E,E-farnesol, reference compound], the “GTF % (mean ± SEM, n = 2)” value in the data set on C. albicans SC5314 [1] (100 μM, * one replicate) turned out to be 44.0 ± 3.1%; in the data set on C. albicans SC5314 [1] (200 μM), 18.4 ± 2.9%. Moreover, the “% change in the death rate compared to the control” value in data set [2] (0.4 mM, day 1) is on record as −4%; in data set [2] (0.4 mM, day 4), −16%; in data set [2] (0.4 mM, day 5) it was −19%; in data set [2] (1 mM, day 1), −12%; in data set [2] (1 mM, day 4) it was 14%; in data set [2] (1 mM, day 5), 10%. In addition, the “% change in the death rate compared to the control” value in data set [2] (2 mM, day 1) is −8%; in data set [2] (2 mM, day 4), 19%; in data set [2] (2 mM, day 5), 8%; in data set [2] (3 mM, day 1) it was −21%; in data set [2] (3 mM, day 4), 23%; in data set [2] (3 mM, day 5) it was 12%. Moreover, the “effect on death rate of infected C. elegans (in words)” value in data set [2] (0.4 mM) is “reduced the death rate slightly”; in data set [2] (higher concentration (above 0.4 mM)), “resulted in higher death rate of the worm”. In the data set with C. elegans glp4; sek1 (2 mM, worms fed on E. coli OP50, 25° C.), the “Death rate (%)” value turned out to be 7%. For the same molecule, the “toxicity to C. elegans fed on E. coli OP50 (in words)” value in the data set with C. elegans glp4; sek1 (in vivo) is “slightly higher than the control”. Also, in the data set on C. albicans SC5314 [3], the “effect on the growth of C. albicans SC5314 (in words)” value is reported as “little effect on the growth”. Also, the “solubility in water (in words)” value in data set [4] is “insoluble in water”.

These data come from patent US11383003B2, “Water soluble farnesol analogs and their use” (Kimberly-Clark Worldwide, Inc., priority 2012, dated 2022).
